We go through 34 compounds from PubChem BioAssay (NCI).

Test in all cases: growth of human tumour cells (NCI), 48 h
In test [1] the test system is SR leukemia.
The subject of test [2] is SNB-19 CNS.
Test [3] has as its system TK-10 renal.
The subject of test [4] is HCC-2998 colon.
In test [5] the test system is SK-MEL-5 melanoma.
The test system of test [6] is DU-145 prostate.
In test [7] the test system is SF-539 CNS.
For test [8], the system named is NCI-H226 lung.
Test [9] has as its system SF-295 CNS.

SMILES strings stand for the structures.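 Protocol summary: plate cells (96-well), add compound at 5 concentrations, incubate 48 h, interpolate endpoints linearly. GI50 = concentration required for 50% inhibition of growth. TGI: total growth inhibition.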

Turning to `C[N+](C)(C)c1nc(N)nc2c1ncn2C1OC(CO)C(O)C1O` (stereo unspecified), the TGI in test [1], in test [2], in test [3], in test [4], in [5] and in [6] was over 100 µM throughout. This compound returned a TGI in test [7] of over 100 µM.
`O=C(O)C1(Cc2ccc3c(c2)CCC3)Cc2cc3c(cc2C1)CCC3`: the TGI in test [1], in test [2], in test [3], in test [8], in test [4] and in test [5] was over 100 µM in each case. Moreover, the TGI in test [6] and in test [7] was over 100 µM in each case.
For the compound `CCCCCCCCCC[C@@H](O)[C@H]1CC[C@@H]([C@H]2CC[C@H]([C@H](O)CCCCCCCCCC[C@@H]3CC(CC(C)=O)C(=O)O3)O2)O1` (stereo partly specified), the GI50 was 18.3 µM in test [2], 0.483 µM in [9], 26.9 µM in [3] and 19.6 µM in test [8]. Further, the TGI is over 100 µM in [2]; over 100 µM in test [9]; over 100 µM in test [3]; 62.5 µM in [4]; 16.2 µM in test [5].
In the case of `N#Cc1nc(Cc2cccs2)oc1N`, the TGI in test [1], in test [2], in test [3], in test [5] and in [6] was over 100 µM throughout.
`Cc1cc(C(C)(C)C)c(OCCCN2CCOCC2)c(C(C)(C)C)c1`: the TGI in test [1] was determined as 47 µM; in [2] it was 32.1 µM; in [9], 33.1 µM; in [3], 36.2 µM; in test [4] it was 30.3 µM; in test [5], 30 µM. Besides, the TGI in test [6] was determined as 34.1 µM; in [7], 33.7 µM.
For the compound `OCC1=C[C@@](COCc2ccccc2)(OCc2ccccc2)[C@@H](OCc2ccccc2)[C@@H]1OCc1ccccc1`, the TGI was 33.4 µM in [1]; over 100 µM in test [2]; 46.7 µM in [9]; over 100 µM in test [3]; 35.3 µM in [8]; 32.3 µM in test [4]. The TGI was 30.5 µM in test [5] and over 100 µM in test [6].
`Brc1ccc2[nH]cc(-c3nc(-c4c[nH]c5ccncc45)cs3)c2c1`: the GI50 in test [9] is 1.71 µM; in test [3], 2.33 µM; in test [4] it was 1.98 µM; in [5], 1.61 µM; in test [6], 1.68 µM; in test [7] it was 1.72 µM. Also, the TGI was found to be 3.14 µM in test [9]; 3.9 µM in test [3]; 3.6 µM in [4]; 2.98 µM in test [5]; 3.07 µM in test [6]; 3.11 µM in test [7].
For `CC1(C)CN=C(c2ccc3ccccc3c2O)N1`, the TGI in [1] is over 100 µM; in [2], over 100 µM; in test [9] it was 9.29 µM; in [3], over 100 µM; in [4], over 100 µM; in test [5] it was over 100 µM. Further, the TGI in test [6] and in test [7] was over 100 µM throughout.
For `CC(=O)Nc1oc(C)nc1C#N`, the TGI in test [1], in test [2], in test [3], in [5] and in test [6] was over 100 µM throughout.
In the case of `NC(=O)Nc1n[nH]c(-c2ccccc2)n1`, the TGI in test [2], in test [9], in [3], in test [8], in [4] and in test [5] was over 100 µM each time. Also, the TGI in [6] and in [7] was over 100 µM in each case.
For `Cn1c(=O)c2[nH]cnc2n(C)c1=O`, the TGI in test [1], in test [3], in [8], in test [4], in [5] and in [6] was over 100 µM in each case.
Regarding `CC(=O)N/N=C1\NN(C(C)=O)C2(S1)C(=O)Nc1ccccc12` (stereo unspecified), the TGI in test [1], in test [2], in [3], in [8], in test [4] and in test [5] was over 100 µM throughout. Besides, the TGI in test [6] and in test [7] was over 100 µM in each case.
Turning to `Cc1cn(C2CC(O)C(Cn3cc(Cn4nc(Br)c(=O)[nH]c4=O)nn3)O2)c(=O)[nH]c1=O` (stereo unspecified), the TGI in [2], in test [9], in test [3], in test [8], in test [4] and in test [5] was over 100 µM in each case. Besides, the TGI in [6] and in test [7] was over 100 µM in each case.
`CCn1c2ccccc2c2cc(NC(=O)c3c(C)[nH]c(=O)[nH]c3=S)ccc21`: the TGI in [1], in [2], in [9], in test [3], in test [8] and in test [4] was over 100 µM in each case. Besides, the TGI in test [5] and in [6] was over 100 µM throughout.
In the case of `c1csc(-c2csc(-c3cccs3)c2)c1`, the TGI is 66.8 µM in [1]; over 100 µM in test [2]; over 100 µM in [9]; over 100 µM in test [3]; over 100 µM in [4]; 38.8 µM in test [5]. In addition, the TGI in test [6] and in test [7] was over 100 µM throughout.
Regarding `COc1cccc(C2c3cc4c(cc3OC(N3CCOCC3)C2C)OCO4)c1` (stereo unspecified), the TGI in test [1] was over 100 µM; in test [2], over 100 µM; in test [9], 35.7 µM; in [8], 43.4 µM; in [5] it was 15.6 µM; in test [6], over 100 µM.
Take `O=c1oc2ccccc2cc1-c1nc2ccccc2s1`: the TGI is over 100 µM in test [1]; 33.5 µM in test [3]; 33 µM in [8]; over 100 µM in test [4]; over 75.1 µM in test [5]; 43.7 µM in test [6].
In the case of `Cc1cccc(-c2cc(=O)c3c(C)ccnc3[nH]2)c1`, the TGI was over 100 µM in test [3]; over 100 µM in test [8]; 11.1 µM in test [4]; 27.8 µM in test [5]; over 100 µM in test [6]; over 100 µM in [7].
As for `COC(=O)C1CC(C=O)=C(SC)N1` (stereo unspecified), the TGI in test [2], in [9], in test [3], in test [4], in test [5] and in test [6] was over 50 µM in each case.
For the compound `CC(=O)Oc1ccc(-c2c(OC(C)=O)c(OC(C)=O)c(-c3ccc(OC(C)=O)c(OC(C)=O)c3)c(OC(C)=O)c2OC(C)=O)cc1`, the TGI in test [1] came to 49.7 µM; in test [2], 32.6 µM; in test [9], 21.3 µM; in test [3], 29.6 µM; in test [8], 35.5 µM; in test [5], 25.5 µM. The TGI in test [6] amounted to 29.8 µM; in [7] it was 34.3 µM.
With `CC(C)=CCC/C(C)=C/CCC1(C)C2COC(=O)C21` (stereo unspecified), the TGI in [1], in test [2], in [9], in [3], in test [8] and in test [4] was over 100 µM throughout. Also, the TGI in [5] is 91.7 µM; in test [6], over 100 µM.
Consider `CCCCC[C@@H]1OC(=O)[C@@]2(CC3c4ccccc4C2c2ccccc23)[C@H]1C(=O)OC`, for which the TGI in [1] was over 100 µM; in test [2], over 100 µM; in [9], over 100 µM; in [3], over 100 µM; in [4], over 100 µM; in [5], 39.2 µM. The compound further came in with a TGI in test [6] of over 100 µM.
As to `COc1cc(/C=C2\N=C(c3ccccc3)N(c3ccc(C(=O)c4ccccc4)cc3N3C(=O)/C(=C/c4cc(OC)c(OC)c(OC)c4)N=C3c3ccccc3)C2=O)cc(OC)c1OC`, the TGI in test [2] is over 100 µM; in test [9] it was 55.9 µM; in test [3], 42.3 µM; in test [4], 11.2 µM; in [5], 21.2 µM; in test [6], 40.3 µM.
Regarding `NC(Cc1ccccc1)C(=O)O` (stereo unspecified), the TGI in [2], in test [9], in [3], in test [8], in [4] and in test [5] was over 100 µM throughout. Moreover, the TGI in test [6] and in test [7] was over 100 µM in each case.
For the compound `C[C@@H](CC(O)C(O)C(C)(C)O)C1CCC23CC12CCC1[C@@]2(C)CCC(=O)C(C)(C)C2CC(OC2OC(CO)C(O)C(O)C2O)[C@]13C` (stereo partly specified), the TGI in test [2], in test [9], in test [3], in test [8], in test [4] and in test [5] was over 10 µM in each case. The TGI in test [6] and in test [7] was over 10 µM throughout.
As for `Cn1c(=O)n2n(c1=O)C1C(=CC2)C2C=CC1n1c(=O)n(C)c(=O)n12` (stereo unspecified), the TGI in test [2], in test [9], in test [3], in [8], in test [5] and in test [6] was over 100 µM throughout. Besides, the TGI in test [7] was over 100 µM.
With `Cc1cc(=O)[nH]c(S(=O)(=O)NC(=S)Nc2ccc(Br)cc2)n1`, the TGI in [2], in test [9], in test [3], in test [8], in [4] and in test [5] was over 100 µM each time. The TGI in test [6] and in [7] was over 100 µM throughout.
In the case of `CN1C(C(=O)Nc2ccccn2)=C(O)c2ccccc2S1(=O)=O`, the TGI in test [1], in [2], in [9], in [3], in test [8] and in test [5] was over 100 µM each time. Besides, the TGI in test [6] and in test [7] was over 100 µM in each case.
As for `O=C(n1c(=O)n(-c2ccc([N+](=O)[O-])cc2)c(=O)n1C(=O)C(Cl)(Cl)Cl)C(Cl)(Cl)Cl`, the TGI in test [2], in test [9], in [3], in test [8], in test [4] and in [5] was over 100 µM throughout. In addition, the TGI in [6] and in test [7] was over 100 µM each time.
For `CCOC(=O)Cn1c(C)nc2nn(Cc3ccccc3)cc2c1=O`, the TGI in test [2], in [9], in test [3], in [8], in test [4] and in test [5] was over 100 µM throughout. Besides, the TGI in test [6] and in test [7] was over 100 µM each time.
Turning to `Cc1ccc(Oc2cc(C)ccc2P(=O)(O)O)cc1`, the TGI in test [2], in test [9], in [3], in test [8], in [4] and in [5] was over 100 µM each time. Moreover, the TGI in test [6] and in test [7] was over 100 µM each time.
As to `NC(=S)NS(=O)(=O)c1ccc(Cl)cc1Cl`, the TGI in [2], in [9], in test [3], in test [8], in [4] and in test [5] was over 100 µM throughout. Further, the TGI in test [6] and in test [7] was over 100 µM each time.
As for `Cn1cnc([N+](=O)[O-])c1Sc1nncc2[nH]cnc12`, the TGI in test [1], in test [2], in [9], in test [3], in test [8] and in [4] was over 100 µM throughout. In addition, the TGI in [5] and in test [7] was over 100 µM each time.
`NCCCN1CCN(CCCNc2ccc3ncn4c5ccccc5c(=O)c2c34)CC1`: the TGI in test [1] is over 25 µM; in test [2], 4.46 µM; in test [9] it was 15.7 µM; in test [3], over 25 µM; in [4] it was 2.93 µM; in [5] it was 4.38 µM. In addition, the TGI in test [6] turned out to be 8.2 µM; in test [7] it was 7.19 µM.
